Here are results for 26 molecules from US20040067991A1, “Tetrahydrobenzothiazole analogues as neuroprotective agents” (priority 2003, published 2004).

Counter-ions that a name gives are not always drawn. Like-named read-outs stand apart in the source and are kept apart here.

The test system of one series is PC12 cells. As to the kind of experiment: Protection of PC12 cells against camptothecin-induced cell death (BCECF AM fluorescence). It counts as cell-based. The protocol:
The 2-amino-4,5,6,7-tetrahydrobenzothiazole hydrogen iodide, 1-(4-methylphenyl)-2-(4,5,6,7-tetrahydro-2-imino-3(2H)-benzothiazolyl)-ethanone hydrobromide, and analogues were tested for their ability to protect PC12 cells against the toxic agent, camptothecin. PC12 cells were cultured in RPMI1640 media containing 10% horse serum and 5% fetal calf serum (37° C., pH 7.4) until confluent. Thereafter, 2.2×10^4 cells per mL were added to each trough of a 96 well plate (approximately 6,270 cells per well 285 μL) and were left to grow for 12 h. The media then was removed and was replaced by media with and without the compounds to be tested, including precursor, PFTα, and numerous analogues (concentration 100-400 nM, prepared in DMSO to a final dilution of 0.4%, 8 wells per concentration). Following 6 h of incubation, camptothecin (40 μM) was added to 4 of each 8 wells, and the cells were incubated for a further 24 h. Cells then were gently washed twice with phosphate buffered saline (PBS: 0.1 M, 37° C., pH 7.4) and were incubated in PBS containing the live-cell indicator dye, 2′,7′-bis(2-carboxyethey)-5-6-carboxyfluorescein AM ester (BCECF AM: 5 μM) (Molecular Probes, CA), for 45 min in minimal light. This fluorescent dye was taken up and retained by live cells. Finally, the cells were washed twice in PBS and their fluorescence then was quantified (excitation: 490 nm, emission: 535 nm, Perkin Elmer HTS 7000).
PC12 cell survival was also assessed. One hundred percent cell survival was determined from cells incubated in the absence of both any compound and camptothecin. […] Compound-induced toxicity was assessed by comparing cells treated with compound at various concentrations in the absence of camptothecin with cells incubated in the absence of both compound and camptothecin. […] Compound-induced cellular protection was assessed by comparing cells incubated with camptothecin with cells incubated with camptothecin in the presence of compound, in a concentration-dependent manner.

In another series the test system is rat hippocampal neurons. As to the kind of experiment: Neuronal survival assay in cultured hippocampal neurons treated with camptothecin or etoposide. It counts as cell-based. The following applies: for neuroprotection of hippocampal neurons against camptothecin (in words): 100 nM, added 1 h before camptothecin 5 μM; for protection of primary hippocampal cells against death induced by camptothecin and etoposide (in words) / neurons killed: camptothecin 5 μM, etoposide 2.5 μM; for neurons killed: hippocampal neurons. The protocol: 2-amino-4,5,6,7-tetrahydrobenzothiazole hydrogen and 1-(4-methylphenyl)-2-(4,5,6,7-tetrahydro-2-imino-3(2H)-benzothiazolyl)-ethanone hydrobromide and their analogues were assessed for their ability to protect rat hippocampal cells in culture from camptothecin ([…]).
Dissociated hippocampal cell cultures were established from embryonic day 18 Sprague-Dawley rats (Harlan, Inc.) as described previously. […] 77:220-28. Cells were grown in polyethyleneimine-coated plastic dishes or 22 m^2 glass coverslips, and incubated in Neurobasal medium containing B27 supplements, 2 mM L-glutamine, 25 mg/ml gentamycin, 1 mM Hepes (Gibco BRL) and 0.001% gentamicin sulfate. All experiments were performed using 9-10 day-old cultures. Camptothecin and etoposide (Signia) were prepared as 500× stocks in DMSO. Neuron survival was quantified by established methods. […] Briefly, viable neurons in premarked fields (10× objective) were counted before experimental treatment and at specified time points thereafter. Neurons with intact neurites of uniform diameter and soma with a smooth round appearance were considered viable. In contrast neurons with fragmented neurites and vacuolated soma were considered non-viable.

Setting [1] is: 6 h preincubation with compound, camptothecin 40 μM for 24 h; read-out: PD50; concentration of compounds required to induce 50% protection (PC50) of PC12 cells from camptothecin-induced cell-death.
Where [2] appears, read: compounds 100-400 nM, camptothecin 40 μM 24 h.

Consider “1-(4-phenylphenyl)-2-(4,5,6,7-tertahydro-2-imino-3(2H)-benzothiazolyl)-ethanone hydrobromide [Compound 10]”, for which the EC50 in the series with PC12 cells (setting [1]) stood at 767 nM. Turning to “2-Imino-3-butyl-4,5,6,7-tetrahydro-3(2H)-benzothiazole hydrobromide [Compound 26]”, in the series with PC12 cells (setting [1]), the EC50 came to 395 nM.

Turning to “2-imino-3-(4′-cyanobenzyl)-4,5,6,7-tetrahydro-3(2H)-benzothiazole hydrobromide [Compound 21]”, the EC50 in the series on PC12 cells (setting [1]) came to 418 nM. As to “2-imino-3-(4′-fluorobenzyl)-4,5,6,7-tetrahydro-3(2H)-benzothiazole hydrobromide [Compound 16]”, in the series on PC12 cells (setting [1]), the EC50 was determined as 154 nM.

For “2-imino-3-(naphthalenylmethyl-4,5,6,7-tetrahydro-3(2H)-benzothiazole hydrobromide [Compound 24]”, the EC50 in the series on PC12 cells (setting [1]) came to 318 nM. For `N=c1sc2c(n1CC(=O)c1ccc(F)cc1)CCCC2` [Compound 4, 1-(4-fluorophenyl)-2-(4,5,6,7-tertahydro-2-imino-3 (2H)-benzothiazolyl)-ethanone hydrobromide], the EC50 with PC12 cells (setting [1]) came out at 379 nM. As for `Br.COc1ccc(C(=O)Cn2c3c(sc2=N)CCCC3)cc1` [Compound 6, 1-(4-methoxylphenyl)-2-(4,5,6,7-tertahydro-2-imino-3(2H)-benzothiazolyl)-ethanone hydrobromide], in the series on PC12 cells (setting [1]), the EC50 amounted to 182 nM. Moreover, the “protection of PC12 cells against camptothecin-induced death (in words)” value (“protection of PC12 cells” for short) in the series with PC12 cells (setting [2]) is “highly potent”. The matching figures for `Br.COc1ccccc1C(=O)Cn1c2c(sc1=N)CCCC2` [Compound 7, 1-(2-methoxylphenyl)-2-(4,5,6,7-tertahydro-2-imino-3(2H)-benzothiazolyl)-ethanone hydrobromide]: 348 nM and “highly potent”. Consider `Br.COc1cccc(C(=O)Cn2c3c(sc2=N)CCCC3)c1` [Compound 8, 1-(3-methoxylphenyl)-2-(4,5,6,7-tertahydro-2-imino-3(2H)-benzothiazolyl)-ethanone hydrobromide], for which, in the series with rat hippocampal neurons, the “neuroprotection of hippocampal neurons against camptothecin (in words)” value is listed as “significantly protected”. In addition, the “protection of primary hippocampal cells against death induced by camptothecin and etoposide (in words)” value (“protection of primary hippocampal cells” for short) in the series with rat hippocampal neurons (24 h) was “highly potency”. In addition, the EC50 with PC12 cells (setting [1]) was found to be 418 nM. As for `Br.N=c1sc2c(n1CC(=O)c1ccc(Cl)cc1)CCCC2` [Compound 9, 1-(4-chlorophenyl)-2-(4,5,6,7-tertahydro-2-imino-3(2H)-benzothiazolyl)ethanone hydrobromide], the “neuroprotection of hippocampal neurons against camptothecin (in words)” value with rat hippocampal neurons was “significantly protected”. Moreover, in the series on rat hippocampal neurons (24 h), the “protection of primary hippocampal cells” value is reported as “highly potency”. Further, in the series with PC12 cells (setting [1]), the EC50 came to 187 nM. The “protection of PC12 cells” value with PC12 cells (setting [2]) is given as “highly potent”. For `N=c1sc2c(n1CC(=O)c1ccc([N+](=O)[O-])cc1)CCCC2` [Compound 11, 1-(4-nitrophenyl)-2-(4,5,6,7-tertahydro-2-imino-3(2H)-benzothiazolyl)ethanone hydrobromide], the EC50 in the series on PC12 cells (setting [1]) is 410 nM. As to `Br.N=c1sc2c(n1CC1CC1)CCCC2` [Compound 15, 3-(cyclopropylmethyl)-4,5,6,7-tetrahydro-2(3H)-benzothiazolimine Hydrobromide], in the series on rat hippocampal neurons, the “neuroprotection of hippocampal neurons against camptothecin (in words)” value is “could not protect neurons effectively”. Besides, the “neuroprotection of hippocampal neurons against etoposide (in words)” value in the series with rat hippocampal neurons (added 1 h before etoposide 2.5 μM) was “activity comparable to PFTα”. Besides, the “protection of primary hippocampal cells” value with rat hippocampal neurons (24 h) is recorded as “highly potency”. Besides, the neuronal survival with rat hippocampal neurons (pretreated with 100 nM of analogue, then camptothecin (5 μM), 24 h) came to 23%. Besides, in the series with PC12 cells (setting [1]), the EC50 was determined as 728 nM. Take `N=c1sc2c(n1Cc1ccc(F)cc1F)CCCC2` [Compound 17, 2-imino-3-(2′,4′-difluorobenzyl)-4,5,6,7-tetrahydro-3(2H)-benzothiazole hydrobromide]: in the series with PC12 cells (setting [1]), the EC50 was 93 nM.

On to `Cc1ccc(Cn2c3c(sc2=N)CCCC3)cc1` [Compound 18, 2-imino-3-(4′-methylbenzyl)-4,5,6,7-tetrahydro-3(2H)-benzothiazole hydrobromide], for which, in the series with PC12 cells (setting [1]), the EC50 amounted to 1000 nM. On to `CC(C)(C)c1ccc(Cn2c3c(sc2=N)CCCC3)cc1` [Compound 19, 2-imino-3-(4′-tert-butylbenzyl)-4,5,6,7-tetrahydro-3(2H)-benzothiazole hydrobromide], for which the EC50 with PC12 cells (setting [1]) is 315 nM. As for `N=c1sc2c(n1Cc1ccc([N+](=O)[O-])cc1)CCCC2` [Compound 20, 2-imino-3-(4′-nitrobenzyl)-4,5,6,7-tetrahydro-3(2H)-benzothiazole hydrobromide], the EC50 in the series with PC12 cells (setting [1]) came to 144 nM. The same measure, in the same setting: with `N=c1sc2c(n1Cc1ccc(C(F)(F)F)cc1)CCCC2` [Compound 22, 2-imino-3-(4′-trifluorobenzyl)-4,5,6,7-tetrahydro-3(2H)-benzothiazole hydrobromide] the figure was 327 nM. On to `N=c1sc2c(n1CCc1ccccc1)CCCC2` [Compound 25, 2-imino-3-phenylethyl-4,5,6,7-tetrahydro-3(2H)-benzothiazole], for which, in the series with PC12 cells (setting [1]), the EC50 was determined as 1100 nM.

`Cc1ccc(C(=O)Cn2c3c(oc2=N)CCCC3)cc1` [Compound 27, 1-(4-methylphenyl)-2-(4,5,6,7-tetrahydro-2-imino-3(2H)-benzoxazolyl)ethanone hydrobromide]: the EC50 in the series on PC12 cells (setting [1]) turned out to be 69 nM. Still for that read-out and setting: as for `CCC(=O)Cn1c2c(oc1=N)CCCC2` [Compound 28, 1-(4,5,6,7-tertahydro-2-imino-3(2H)-benzoxazolyl)-2-butanone hydrobromide], the figure is 143 nM; as for `Cc1ccc(-c2cn3c4c(sc3n2)CCCC4)cc1` [Compound 29, 2-(4′-methylphenyl)-5,6,7,8-tetrahydroimidazo[2,1-b]benzothiazole], 214 nM.

For the molecule `N=c1sc2c(n1Cc1cccc(Cn3c4c(sc3=N)CCCC4)n1)CCCC2` [Compound 30, 2,6-Bis[(4,5,6,7-tetrahydro-2-imino-3(2H)-benzothiazolyl)methyl]pyridine Dihydrobromide], the EC50 with PC12 cells (setting [1]) worked out at 133 nM. As for `CC[C@@]1(O)C(=O)OCc2c1cc1n(c2=O)Cc2cc3ccccc3nc2-1` [camptothecin, reference compound], in the series on rat hippocampal neurons, the neurons killed result is on record as “approximately 85%”. Regarding `COc1cc([C@@H]2c3cc4c(cc3[C@@H](O[C@@H]3O[C@@H]5CO[C@@H](C)O[C@H]5[C@H](O)[C@H]3O)[C@H]3COC(=O)[C@H]23)OCO4)cc(OC)c1O` [etoposide, reference compound], the neurons killed entry in the series with rat hippocampal neurons is reported as “approximately 85%”. For `I.Nc1nc2c(s1)CCCC2` [precursor, 2-amino-4,5,6,7-tetrahydrobenzothiazole hydrogen iodide], the “toxicity when administered alone to hippocampal cells” value with rat hippocampal neurons (concentrations up to 400 nM) was “neither PFTα (5) nor its precursor were toxic”. Moreover, the “protection of PC12 cells” value in the series with PC12 cells (setting [2]) is listed as “low activity”. For the same molecule, in the series on PC12 cells (read-out: PD50; concentration of compounds required to induce 50% protection (PC50) of PC12 cells from camptothecin-induced cell-death; 6 h preincubation with compound, camptothecin 40 μM for 24 h), the EC50 came out at 5750 nM. Regarding “ethyl 2-(4,5,6,7-tertahydro-2-imino-3(2H)-benzothiazolyl)-acetate hydrobromide [Compound 2]”, the EC50 with PC12 cells (setting [1]) is 595 nM.
